According to patent publication US5672715A, “Herbicidal substituted 3-aryl-pyrazoles” (Monsanto Company, priority 1995, dated 1997):

Assays:
Type in all cases: in vivo
[1] = test system: Rape; test: pre-emergence herbicide test; conditions: pre-emergence, 0.25 lb/A; read-out: % plant inhibition
Procedure, shortened: (§1)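 Pans of compacted topsoil received seeds and then a cover layer treated with test compound from an acetone or water carrier. Plants grew under greenhouse conditions with moisture supplied from below. Observations of % inhibition followed roughly 14 days after treatment.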

[2] = test system: Wild Oats; test: pre-emergence herbicide test; conditions: Avena fatua, pre-emergence, 0.25 lb/A; read-out: % plant inhibition
Procedure, shortened: as §1

[3] = test system: Birdseye Speedwell; test: pre-emergence herbicide test; conditions: pre-emergence, 0.25 lb/A; read-out: % plant inhibition
Procedure, shortened: as §1

[4] = test system: Velvetleaf; test: pre-emergence herbicide test; conditions: Abutilon theophrasti, pre-emergence, 0.25 lb/A; read-out: % plant inhibition
Procedure, shortened: as §1

[5] = test system: Green Foxtail; test: pre-emergence herbicide test; conditions: Setaria viridis, pre-emergence; 0.25 lb/A; read-out: % plant inhibition
Procedure, shortened: as §1

[6] = test system: Giant Foxtail; test: pre-emergence herbicide test; conditions: Setaria faberi, pre-emergence, 0.25 lb/A; read-out: % plant inhibition
Procedure, shortened: as §1

[7] = test system: Morning Glory; test: pre-emergence herbicide test; conditions: Ipomoea, pre-emergence, 0.25 lb/A; read-out: % plant inhibition
Procedure, shortened: as §1

[8] = test system: Soybean; test: pre-emergence herbicide test; conditions: Glycine max, pre-emergence, 0.25 lb/A; read-out: % plant inhibition
Procedure, shortened: as §1

[9] = test system: Seedling Johnsongrass; test: pre-emergence herbicide test; conditions: Sorghum halepense, pre-emergence, 0.25 lb/A; read-out: % plant inhibition
Procedure, shortened: as §1

[10] = test system: Common Chickweed; test: pre-emergence herbicide test; conditions: pre-emergence, 0.25 lb/A; read-out: % plant inhibition
Procedure, shortened: as §1

[11] = test system: Bedstraw Catchweed; test: pre-emergence herbicide test; conditions: Galium aparine, pre-emergence, 0.25 lb/A; read-out: % plant inhibition
Procedure, shortened: as §1

[12] = test system: Downy Brome; test: pre-emergence herbicide test; conditions: Bromus tectorum, pre-emergence, 0.25 lb/A; read-out: % plant inhibition
Procedure, shortened: as §1

[13] = test system: Wheat; test: pre-emergence herbicide test; conditions: Triticum aestivum, pre-emergence, 0.25 lb/A; read-out: % plant inhibition
Procedure, shortened: as §1

[14] = test system: Blackgrass; test: pre-emergence herbicide test; conditions: Alopecurus myosuroides, pre-emergence, 0.25 lb/A; read-out: % plant inhibition
Procedure, shortened: as §1

[15] = test system: Cocklebur; test: pre-emergence herbicide test; conditions: Xanthium strumarium, pre-emergence, 0.25 lb/A; read-out: % plant inhibition
Procedure, shortened: as §1

[16] = test system: Corn; test: pre-emergence herbicide test; conditions: Zea mays, pre-emergence, 0.25 lb/A; read-out: % plant inhibition
Procedure, shortened: as §1

[17] = test system: Barnyardgrass; test: pre-emergence herbicide test; conditions: Echinochloa crus-galli, pre-emergence, 0.25 lb/A; read-out: % plant inhibition
Procedure, shortened: as §1

[18] = test system: Rape; test: post-emergence herbicide test; conditions: post-emergence, 0.25 lb/A; read-out: % plant inhibition
Procedure, shortened: (§2)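 Greenhouse pot test: seeds pressed into compacted topsoil in pans, covered, watered as needed; at two to three weeks plants were sprayed by atomizer at 170.3 kPa, 1870 L/Ha, with about 0.4% v/v emulsifier. Value is percent inhibition per species.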

[19] = test system: Wild Oats; test: post-emergence herbicide test; conditions: Avena fatua, post-emergence, 0.25 lb/A; read-out: % plant inhibition
Procedure, shortened: as §2

[20] = test system: Birdseye Speedwell; test: post-emergence herbicide test; conditions: post-emergence, 0.25 lb/A; read-out: % plant inhibition
Procedure, shortened: as §2

[21] = test system: Velvetleaf; test: post-emergence herbicide test; conditions: Abutilon theophrasti, post-emergence, 0.25 lb/A; read-out: % plant inhibition
Procedure, shortened: as §2

[22] = test system: Green Foxtail; test: post-emergence herbicide test; conditions: Setaria viridis, post-emergence, 0.25 lb/A; read-out: % plant inhibition
Procedure, shortened: as §2

[23] = test system: Giant Foxtail; test: post-emergence herbicide test; conditions: Setaria faberi, post-emergence, 0.25 lb/A; read-out: % plant inhibition
Procedure, shortened: as §2

[24] = test system: Morning Glory; test: post-emergence herbicide test; conditions: Ipomoea, post-emergence, 0.25 lb/A; read-out: % plant inhibition
Procedure, shortened: as §2

[25] = test system: Soybean; test: post-emergence herbicide test; conditions: Glycine max, post-emergence, 0.25 lb/A; read-out: % plant inhibition
Procedure, shortened: as §2

[26] = test system: Seedling Johnsongrass; test: post-emergence herbicide test; conditions: Sorghum halepense, post-emergence, 0.25 lb/A; read-out: % plant inhibition
Procedure, shortened: as §2

[27] = test system: Common Chickweed; test: post-emergence herbicide test; conditions: post-emergence, 0.25 lb/A; read-out: % plant inhibition
Procedure, shortened: as §2

[28] = test system: Bedstraw Catchweed; test: post-emergence herbicide test; conditions: Galium aparine, post-emergence, 0.25 lb/A; read-out: % plant inhibition
Procedure, shortened: as §2

[29] = test system: Downy Brome; test: post-emergence herbicide test; conditions: Bromus tectorum, post-emergence, 0.25 lb/A; read-out: % plant inhibition
Procedure, shortened: as §2

[30] = test system: Wheat; test: post-emergence herbicide test; conditions: Triticum aestivum, post-emergence, 0.25 lb/A; read-out: % plant inhibition
Procedure, shortened: as §2

[31] = test system: Blackgrass; test: post-emergence herbicide test; conditions: Alopecurus myosuroides, post-emergence, 0.25 lb/A; read-out: % plant inhibition
Procedure, shortened: as §2

[32] = test system: Cocklebur; test: post-emergence herbicide test; conditions: Xanthium strumarium, post-emergence, 0.25 lb/A; read-out: % plant inhibition
Procedure, shortened: as §2

[33] = test system: Corn; test: post-emergence herbicide test; conditions: Zea mays, post-emergence, 0.25 lb/A; read-out: % plant inhibition
Procedure, shortened: as §2

[34] = test system: Barnyardgrass; test: post-emergence herbicide test; conditions: Echinochloa crus-galli, post-emergence, 0.25 lb/A; read-out: % plant inhibition
Procedure, shortened: as §2

Work on `Cc1c(-c2cc(C(=O)OCC3CNCCO3)c(Cl)cc2F)nn(C)c1C(F)(F)F` (centres unmarked) [Compound 47] yielded an inhibition at 280.212 g/ha [1] of 5%, an inhibition at 280.212 g/ha [2] of 5% and an inhibition at 280.212 g/ha [3] of 70%. For the same molecule, the inhibition at 280.212 g/ha [4] was 50%, the inhibition at 280.212 g/ha [5] was 100% and the inhibition at 280.212 g/ha [6] was 75%. It also gave an inhibition at 280.212 g/ha [7] of 70%, an inhibition at 280.212 g/ha [8] of 0% and an inhibition at 280.212 g/ha [9] of 50%. It also gave an inhibition at 280.212 g/ha [10] of 70%, an inhibition at 280.212 g/ha [11] of 95% and an inhibition at 280.212 g/ha [12] of 20%. The inhibition at 280.212 g/ha [13] was 0%, the inhibition at 280.212 g/ha [14] was 25% and the inhibition at 280.212 g/ha [15] was 0%. It also gave an inhibition at 280.212 g/ha [16] of 0%, an inhibition at 280.212 g/ha [17] of 75% and an inhibition at 280.212 g/ha [18] of 65%. For the same molecule, the inhibition at 280.212 g/ha [19] was 30%, the inhibition at 280.212 g/ha [20] was 95% and the inhibition at 280.212 g/ha [21] was 100%. For the same molecule, the inhibition at 280.212 g/ha [22] was 70%, the inhibition at 280.212 g/ha [23] was 5% and the inhibition at 280.212 g/ha [24] was 70%. The inhibition at 280.212 g/ha [25] was 30%, the inhibition at 280.212 g/ha [26] was 50% and the inhibition at 280.212 g/ha [27] was 95%. It also gave an inhibition at 280.212 g/ha [28] of 90%, an inhibition at 280.212 g/ha [29] of 20% and an inhibition at 280.212 g/ha [30] of 15%. The inhibition at 280.212 g/ha [31] was 20%, the inhibition at 280.212 g/ha [32] was 100% and the inhibition at 280.212 g/ha [33] was 50%. The inhibition at 280.212 g/ha [34] was 5%.
Molecule `CCCCCOC(=O)c1cc(-c2nn(C)c(C(F)(F)F)c2C)c(F)cc1Cl` [Compound 48] has an inhibition at 280.212 g/ha [1] of 5%, an inhibition at 280.212 g/ha [2] of 45% and an inhibition at 280.212 g/ha [3] of 100%. The inhibition at 280.212 g/ha [4] was 95%, the inhibition at 280.212 g/ha [5] was 100% and the inhibition at 280.212 g/ha [6] was 99%. For the same molecule, the inhibition at 280.212 g/ha [7] was 99%, the inhibition at 280.212 g/ha [8] was 0% and the inhibition at 280.212 g/ha [9] was 98%. For the same molecule, the inhibition at 280.212 g/ha [10] was 95%, the inhibition at 280.212 g/ha [11] was 45% and the inhibition at 280.212 g/ha [12] was 90%. It also gave an inhibition at 280.212 g/ha [13] of 0%, an inhibition at 280.212 g/ha [14] of 60% and an inhibition at 280.212 g/ha [15] of 45%. For the same molecule, the inhibition at 280.212 g/ha [16] was 35%, the inhibition at 280.212 g/ha [17] was 100% and the inhibition at 280.212 g/ha [18] was 60%. The inhibition at 280.212 g/ha [19] was 75%, the inhibition at 280.212 g/ha [20] was 100% and the inhibition at 280.212 g/ha [21] was 100%. It also gave an inhibition at 280.212 g/ha [22] of 98%, an inhibition at 280.212 g/ha [23] of 99% and an inhibition at 280.212 g/ha [24] of 75%. For the same molecule, the inhibition at 280.212 g/ha [25] was 70%, the inhibition at 280.212 g/ha [26] was 85% and the inhibition at 280.212 g/ha [27] was 65%. The inhibition at 280.212 g/ha [28] was 80%, the inhibition at 280.212 g/ha [29] was 65% and the inhibition at 280.212 g/ha [30] was 16%. It also gave an inhibition at 280.212 g/ha [31] of 70%, an inhibition at 280.212 g/ha [32] of 90% and an inhibition at 280.212 g/ha [33] of 7%. It also gave an inhibition at 280.212 g/ha [34] of 60%.
